We go through 14 compounds from patent US5164367A, “Method of using copper(II) containing compounds to accelerate wound healing” (ProCyte Corporation, priority 1990, dated 1992).

Assay [1] has as its system wound chambers in healing impaired rats (granulation tissue formation). The assay is described as follows: Wound chamber model in cortisone acetate treated (healing impaired) rats, I.M. injection. Type of assay: in vivo. As to the method: (§1) The chambers were removed at day 15 and 29.
After implantation of the chambers, the rats were subsequently injected with Cortisone Acetate (10 mg I.M. daily, Cortone Acetate, Merck) to impair the healing response. After allowing for encapsulation of the chambers, the rats were injected I.M. (in the opposite leg from the cortisone injection) with 0.1 ml of either a saline solution containing 10 mg/ml of glycyl-L-histidyl-L-lysine:copper(II) (2:1 molar ratio) or saline.
After implantation of the chambers, the rats were subsequently injected with Cortisone Acetate (10 mg I.M. daily, Cortone Acetate, Merck) to impair the healing response. After allowing for encapsulation of the chambers, the rats were injected I.M. (in the opposite leg from the cortisone injection) with 0.1 ml of either a saline solution containing 19 mg/ml of glycyl-L-histidyl-L-lysyl-valyl-phenylalanly-valine:copper(II) or saline.
After implantation of the chambers, the rats were subsequently injected with Cortisone Acetate (10 mg I.M. daily, Cortone Acetate, Merck) to impair the healing response. After allowing for encapsulation of the chambers, the rats were injected I.M. (in the opposite leg from the cortisone injection) with 0.1 ml of the copper(II) compounds listed at the dosage specified in Table 4, or saline.

The subject of assay [2] is wound chambers in rats (granulation tissue formation). The assay can be described thus: Wound chamber model in rats, compounds injected directly into the wound chambers.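 Note: compounds given as 0.2 ml injections into encapsulated wound chambers in rats on set days, chambers removed at day 15 or 29, contents measured per chamber versus saline-injected chambers.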
For assay [3], the system named is 15 mm full-thickness excision wound in mice. The assay can be described thus: Full thickness defect model in mice, I.M. injection. The class given is in vivo. An excerpt: Following an acclimation period, mice are anesthetized with I.P. pentobarbital and prepped for surgery. The hair is plucked from a wide area of the mid-back. An ink stamp bearing a 15 mm diameter circle is used to mark the skin for subsequent full-thickness excision. Tissue is excised to the fascia underlying the paniculus carnosus muscle. Following excision, hemostasis is achieved through irrigation and the use of sterile gauze pads.
Mice received a first I.M. treatment of GHL-Cu following hemostasis, Day 0. Injections consisted of 0.1 mg of GHL-Cu in a volume of 0.1 ml. Mice used as controls received injections of saline. Injections were repeated on days 1, 2, 3, 6, 7, 8, 9, 10, and 13.
The residual wound surface area is measured on days 1, 7, 10 and 14. The final comparison is performed on Day 14. Table 5 below illustrates that I.M. injection of GHL-Cu resulted is an approximately 75% smaller residual wound size at 14 days.

Assay [4] has as its system wound chambers in normal rats (granulation tissue formation). The assay can be described thus: Subcutaneous stainless steel wound chamber model, I.M. injection, normal rats. The class given is in vivo.
From the text: The subcutaneous implantation of stainless steel wound chambers in rats provides a model for the healing of open cavity wounds. This model in many ways mimics the early events in the formation of granulation tissue found in many types of wounds and surgical defects. Implantation of these chambers triggers a series of responses which reflect the series of phases involved in wound healing--fibrin clot formation, infiltration of white cells, collagen synthesis, and new blood vessel formation.
as §1
After allowing for encapsulation of the chambers, the rats were injected I.M. with 0.1 ml of either a saline solution containing 10 mg/ml glycyl-L-histidyl-L-lysine:copper(II) (2:1 molar ratio) or saline.

The subject of assay [5] is 2.0x2.0 cm full thickness skin defects in pigs. The assay can be described thus: Full thickness skin defects in pigs, I.M. injection, punch biopsy analysis. The settings on record: pig. The class given is in vivo, domestic pigs. The procedure:
The systemic application of GHL-Cu increases the formation of granulation tissue in pigs. Two domestic pigs approximately 29-31 pounds, about 8 weeks old, were anesthetized with Ketamine (30 mg/Kg) and Rompum (5 mg/Kg). A series of full thickness skin defects measuring 2.0×2.0 cm were created on the backs of each pig and bandaged with gauze and adhesive tape. One pig was treated with I.M. injections of strerile saline and the other with a solution of GHL-Cu (30 mg/ml). Each pig received 1.0 ml injections of either the saline or GHL-Cu solution on days 0, 1, 2, 5, 6, 7, 8, 9, 12, and 13.
Punch biopsy samples were taken from the centers of the healing wounds on day 7 and day 12 and analyzed for the biochemical parameters of granulation tissue and described in Example 10.

[6] abbreviates: Table 8 part A, 2.0 mg/injection, saline control 4.5 ± 1.0.
Setting [7] is: Table 8 part A, 2.0 mg/injection, saline control 49 ± 9.
[8] abbreviates: Table 8 part A, 2.0 mg/injection, saline control 75 ± 11.
The mark [9] stands for this setting: Table 8 part A, 2.0 mg/injection, saline control 703 ± 244.
[10] abbreviates: healing impaired (cortisone) rats, 0.3 mg/injection, saline control 502 ± 145.
The mark [11] stands for this setting: cortisone treated rats, 0.1 ml of 10 mg/ml.

`O=S(=O)([O-])[O-].[Cu+2]` [CuSO4, cupric sulfate]: in assay [1] (healing impaired (cortisone) rats, 0.2 mg/injection, saline control 502 ± 145), the COLLAGEN is listed as 976 ± 343 μg HP/chamber.

For the compound “alanylL-histidyl-L-lysine:copper(II) [AHL:Cu]”, in assay [2] (setting [6]), the ANGIOGENESIS turned out to be 10.2 ± 6.5 Units AP/chamber. In assay [2] (setting [7]), this compound showed a PROTEIN of 46 ± 14 mg/chamber. Besides, the “WET WEIGHT” value in assay [2] (setting [8]) is recorded as 74 ± 22 mg. In assay [2] (setting [9]), this compound registered a COLLAGEN of 1565 ± 520 μg HP/chamber.

Take carnosine:copper(II) [CARN:Cu]: the COLLAGEN in assay [1] (setting [10]) is recorded as 832 ± 174 μg HP/chamber.

Regarding citrate:copper(II) [CITRATE:Cu], the COLLAGEN in assay [1] (healing impaired (cortisone) rats, 0.5 mg/injection, saline control 502 ± 145) is given as 976 ± 343 μg HP/chamber.

“glycyl-L-histidyl-L-lysine:copper(II) [GHL:Cu]”: in assay [3] (0.1 mg in 0.1 ml per injection, saline control 1.78 ± 2.56), the “RESIDUAL WOUND SURFACE AREA DAY 14” value came out at 0.42 ± 0.60 SQ MM. In addition, the “smaller residual wound size at 14 days vs saline” value in assay [3] (0.1 mg per injection, day 14) was “approximately 75%”. The ANGIOGENESIS is on record as 3.0 ± 1.5 Units AP/chamber in assay [4] (1.0 mg/injection, saline control 2.2 ± 1.1); 2.2 ± 1.2 Units AP/chamber in assay [5] (30 mg/injection, punch biopsies, saline control 0.4 ± 0.1); 1.5 ± 1.6 Units AP/chamber in assay [1] (healing impaired (cortisone) rats, 1.0 mg/injection, saline control 0.5 ± 0.3). Further, the PROTEIN in assay [4] (1.0 mg/injection, saline control 36 ± 13) came out at 55 ± 19 mg/chamber; in assay [1] (healing impaired (cortisone) rats, 1.0 mg/injection, saline control 11 ± 8), 25 ± 9 mg/chamber. The “DRY WEIGHT” value in assay [4] (1.0 mg/injection, saline control 51 ± 15) was determined as 75 ± 25 mg; in assay [1] (healing impaired (cortisone) rats, 1.0 mg/injection, saline control 20 ± 12), 35 ± 13 mg. The COLLAGEN in assay [4] (1.0 mg/injection, saline control 376 ± 86) is recorded as 1273 ± 711 μg HP/chamber; in assay [5] (30 mg/injection, punch biopsies, saline control 628 ± 182), 855 ± 20 μg HP/chamber; in assay [1] (healing impaired (cortisone) rats, 1.0 mg/injection, saline control 187 ± 101), 366 ± 74 μg HP/chamber. For the same compound, the “biochemical healing parameters (vs saline)” value in assay [4] (0.1 ml of 10 mg/ml) is “significantly increased”. In addition, the “WET WEIGHT” value in assay [5] (30 mg/injection, punch biopsies (day 7 and day 12), saline control 121 ± 7) was found to be 148 ± 11 mg. Moreover, the “visual examination of granulation tissue level” value in assay [5] (30 mg/injection, saline treated animal: level below the skin) was “raised above the level of the surrounding skin”. Also, the “weight, collagen content, and angiogenesis in the biopsies” value in assay [5] (1.0 ml of 30 mg/ml per injection) is given as “significant increase”. The “healing response in healing impaired animals relative to normal animals” value in assay [1] (setting [11]) is “increased the healing response in the healing impaired animals to the level found in the normal animals”. Moreover, in assay [1] (setting [11]), the “level of all the biochemical parameters examined compared to control animals” value was “increased”.

As to “glycyl-L-histidyl-L-lysyl-L-valyl-L-phenylalanyl-L-valine:copper(II) [GHLVFV:Cu]”, the ANGIOGENESIS in assay [1] (cortisone treated rats, 1.9 mg/injection, saline control 1.9 ± 0.4) stood at 6.9 ± 6.1 Units AP/chamber. The same compound had a PROTEIN in assay [1] (cortisone treated rats, 1.9 mg/injection, saline control 32 ± 4) of 45 ± 15 mg/chamber. Further, in assay [1] (cortisone treated rats, 1.9 mg/injection, saline control 65 ± 8), the “DRY WEIGHT” value stood at 84 ± 28 mg. For the same compound, the COLLAGEN in assay [1] (cortisone treated rats, 1.9 mg/injection, saline control 502 ± 145) amounted to 1279 ± 1001 μg HP/chamber. For the same compound, the “level of all the biochemical parameters examined” value in assay [1] (cortisone treated rats, 0.1 ml of 19 mg/ml) is reported as “increased”.

In assay [2] (setting [6]), “glycylL-(3-methyl)histidyl-L-lysine:copper(II) [G(3-Me)HL:Cu]” had an ANGIOGENESIS of 8.9 ± 5.5 Units AP/chamber. The same compound had a PROTEIN in assay [2] (setting [7]) of 75 ± 9 mg/chamber. For the same compound, the “WET WEIGHT” value in assay [2] (setting [8]) turned out to be 125 ± 15 mg. Also, in assay [2] (setting [9]), the COLLAGEN is on record as 1996 ± 288 μg HP/chamber.

In turn, “glycylL-histidyl-L-lysine octyl amide:copper(II) [GHL-Octyl Amide:Cu]” displayed an ANGIOGENESIS in assay [2] (Table 7 part A, 2.6 mg/injection, saline control 5.3 ± 3.6) of 6.7 ± 1.3 Units AP/chamber. The same compound yielded a PROTEIN in assay [2] (Table 7 part A, 2.6 mg/injection, saline control 47 ± 20) of 47 ± 6 mg/chamber. Besides, in assay [2] (Table 7 part A, 2.6 mg/injection, saline control 85 ± 30), the “WET WEIGHT” value is 101 ± 8 mg. The compound also yielded a COLLAGEN in assay [2] (Table 7 part A, 2.6 mg/injection, saline control 335 ± 132) of 1339 ± 265 μg HP/chamber.

Regarding “glycylL-histidyl-L-lysine octyl ester:copper(II) [GHL-Octyl Ester:Cu]”, the ANGIOGENESIS in assay [2] (Table 7 part B, 2.6 mg/injection, saline control 4.5 ± 1.0) worked out at 12.4 ± 3.6 Units AP/chamber. Moreover, in assay [2] (Table 7 part B, 2.6 mg/injection, saline control 49 ± 9), the PROTEIN was 66 ± 8 mg/chamber. The “WET WEIGHT” value in assay [2] (Table 7 part B, 2.6 mg/injection, saline control 75 ± 11) is 106 ± 8 mg. In assay [2] (Table 7 part B, 2.6 mg/injection, saline control 703 ± 244), the COLLAGEN was 1918 ± 565 μg HP/chamber.

For “glycylL-histidyl-L-lysyl-L-tryptophan:copper(II) [GHLW:Cu]”, the ANGIOGENESIS in assay [2] (Table 7 part A, 3.1 mg/injection, saline control 5.3 ± 3.6) amounted to 7.7 ± 1.6 Units AP/chamber. In addition, the “WET WEIGHT” value in assay [2] (Table 7 part A, 3.1 mg/injection, saline control 85 ± 30) is reported as 94 ± 14 mg. In assay [2] (Table 7 part A, 3.1 mg/injection, saline control 335 ± 132), the COLLAGEN is recorded as 1508 ± 128 μg HP/chamber.

With “glycylL-histidyl-caprolactam:copper(II) [GHCap:Cu]”, the ANGIOGENESIS in assay [2] (setting [6]) turned out to be 10.7 ± 3.1 Units AP/chamber. Moreover, the PROTEIN in assay [2] (setting [7]) is 60 ± 11 mg/chamber. Besides, the “WET WEIGHT” value in assay [2] (setting [8]) worked out at 98 ± 13 mg. This compound also returned a COLLAGEN in assay [2] (setting [9]) of 1699 ± 365 μg HP/chamber.

“glycylglycyl-glycine:copper(II) [GGG:Cu]”: the COLLAGEN in assay [1] (setting [10]) is 829 ± 210 μg HP/chamber.

In turn, “histidylglycyl-L-lysine:copper(II) [HGL:Cu]” came in with an ANGIOGENESIS in assay [2] (setting [6]) of 10.4 ± 3.9 Units AP/chamber. In assay [2] (setting [7]), this compound came in with a PROTEIN of 58 ± 9 mg/chamber. Further, the “WET WEIGHT” value in assay [2] (setting [8]) turned out to be 104 ± 13 mg. Besides, the COLLAGEN in assay [2] (setting [9]) is recorded as 2025 ± 456 μg HP/chamber.

For “lysylL-histidyl-glycyl-L-valyl-L-phenylalanyl-L-valine:copper(II) [LHGVFV:Cu]”, in assay [2] (Table 8 part B, 3.8 mg/injection, saline control 5.3 ± 3.6), the ANGIOGENESIS was 8.0 ± 1.3 Units AP/chamber. In addition, the PROTEIN in assay [2] (Table 8 part B, 3.8 mg/injection, saline control 47 ± 20) worked out at 37 ± 9 mg/chamber. For the same compound, the “WET WEIGHT” value in assay [2] (Table 8 part B, 3.8 mg/injection, saline control 85 ± 30) is listed as 95 ± 18 mg. Also, the COLLAGEN in assay [2] (Table 8 part B, 3.8 mg/injection, saline control 335 ± 132) is 1630 ± 275 μg HP/chamber.
